Data from article PMC8800105 (The Journal of Biological Chemistry, 2021).

Biological target: TRPA1 (Homo sapiens, UniProt O75762)
Assay: whole-cell patch clamp in HEK293
Assay type: cell-based

Chain of TRPA1 (O75762 whole entry): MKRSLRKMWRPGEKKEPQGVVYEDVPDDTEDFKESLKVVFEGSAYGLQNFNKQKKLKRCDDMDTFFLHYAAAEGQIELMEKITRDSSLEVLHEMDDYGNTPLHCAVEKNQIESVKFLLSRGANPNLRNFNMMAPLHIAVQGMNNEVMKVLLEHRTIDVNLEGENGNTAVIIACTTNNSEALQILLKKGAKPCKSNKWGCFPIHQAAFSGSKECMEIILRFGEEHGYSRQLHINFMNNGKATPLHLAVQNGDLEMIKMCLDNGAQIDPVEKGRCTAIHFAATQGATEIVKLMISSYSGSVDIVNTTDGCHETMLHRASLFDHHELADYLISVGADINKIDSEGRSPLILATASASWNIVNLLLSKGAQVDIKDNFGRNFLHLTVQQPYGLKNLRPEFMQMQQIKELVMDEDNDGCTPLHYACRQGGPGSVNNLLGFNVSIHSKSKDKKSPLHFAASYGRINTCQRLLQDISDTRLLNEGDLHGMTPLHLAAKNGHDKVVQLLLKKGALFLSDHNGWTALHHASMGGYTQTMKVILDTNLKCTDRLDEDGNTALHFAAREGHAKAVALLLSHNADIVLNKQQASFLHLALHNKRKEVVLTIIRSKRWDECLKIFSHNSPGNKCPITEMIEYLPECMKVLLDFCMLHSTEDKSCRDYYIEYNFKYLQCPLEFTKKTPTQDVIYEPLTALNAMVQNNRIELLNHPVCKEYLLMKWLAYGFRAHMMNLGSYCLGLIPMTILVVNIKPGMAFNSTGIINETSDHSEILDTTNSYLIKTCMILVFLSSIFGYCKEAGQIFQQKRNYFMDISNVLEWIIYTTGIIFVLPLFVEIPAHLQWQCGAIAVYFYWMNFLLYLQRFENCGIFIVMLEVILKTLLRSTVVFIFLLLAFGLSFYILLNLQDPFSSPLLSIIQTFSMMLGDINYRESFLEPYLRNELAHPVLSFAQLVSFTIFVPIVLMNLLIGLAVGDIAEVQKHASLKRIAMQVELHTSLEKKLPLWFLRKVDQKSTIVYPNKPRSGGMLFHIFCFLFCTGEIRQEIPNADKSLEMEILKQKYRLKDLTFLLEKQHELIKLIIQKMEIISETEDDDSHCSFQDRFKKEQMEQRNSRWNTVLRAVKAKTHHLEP

| SMILES | EC50 |
| --- | --- |
| O=[N+]([O-])c1ccc(F)c([N+](=O)[O-])c1 [DNFB] | 2.3 ± 0.7 µM |
| O=[N+]([O-])c1ccc(Cl)c([N+](=O)[O-])c1 [DNCB] | 42.4 ± 20.9 µM |
